Test results published in US9980972B2, “Rho kinase inhibitors for use in treating familial amyotrophic lateral sclerosis” (GEORG-AUGUST-UNIVERSITÄT GÖTTINGEN STIFTUNG ÖFFENTLICHEN …, priority 2012, dated 2018).

Legend:
[1] = tested on: SOD1 G93A mouse model of ALS; assay: Disease duration (onset until death) in SOD1 G93A mice; type: in vivo
Description: Disease duration. This parameter was selected in order analyze the treatment effects under a clinically relevant situation of the time from disease onset until death. Disease duration is defined as beginning from the appearance of the first clinical symptoms until death.

[2] = tested on: SOD1 G93A mouse model of ALS; assay: Rotarod test (motor coordination), time to failure of 180 s; type: in vivo
Description: From a patient's point of view overall survival is not the only parameter of a successful therapy. Many recent therapeutic studies in humans rather evaluate an increased time with improved quality of life. An improved motor function could be one parameter that is relevant for the quality of daily life and therefore the inventors chose two different tests to monitor motor function in the present animal model. The rotarod test evaluates fine motor coordination and is a very sensitive test for the ability to move on an unstable underground. Evaluating motor coordination by subjecting the animals to the rotarod test, the presymptomatic female treatment group failed later in the task to reach a total running time of 180 s (122.5 days) in comparison to the vehicle-treated group (114.2 days).

[3] = tested on: SOD1 G93A mouse model of ALS; assay: Hanging wire test (crude muscular strength), time to failure of 180 s; type: in vivo; settings: either treatment groups of both sexes
Description: The hanging wire test evaluates crude grip strength of the upper extremities.
The hanging wire performance evaluating crude muscular strength in the task to reach a total hanging wire time of 180 s was not different in either treatment groups of both sexes (FIG. 6). Wildtype animals always reached the maximum time of 180 s (data not shown).

[4] = tested on: spinal cord motoneurons of SOD1 G93A mice; assay: ChAT positive motoneurons in lumbar spinal cord sections; type: in vivo, mouse; settings: for ChAT cell numbers per lumbar spinal cord section / motoneuron count: time of death; for ChAT cell numbers per lumbar spinal cord section: vehicle 6.1±0.95
Procedure: After deep anaesthesia, mice were transcardially perfused with PBS solution followed by 4% paraformaldehyde. Spinal cords, sciatic nerves and gastrocnemius muscles were removed. Spinal cords and gastrocnemius muscles were then postfixed for 2 h in 4% paraformaldehyde. Thereafter, the tissue was dehydrated in 30% sucrose overnight and kept at -20° C. until further processing. Coronal sections of the lumbar spinal cord (L3-L6) (20 μm) and horizontal sections of the tibial muscle (35 μm) were prepared using a Leica Kryostat and collected on gelatine-coated glass slides. Spinal cord sections selected for immunohistochemical processing were first rehydrated. Then antigen-retrieval was performed for 4 h in TBS at 60° C. for later GFAP or Iba1 labeling and for 30 min in sodium citrate (pH 9.0) at 80° C. for later ChAT labeling. […] The primary antibodies (anti-ChAT 1:100, AB144 P, Millipore; anti-GFAP 1:200, DAKO; anti-Iba1 1:500, WAKO, Osaka, Japan) were applied at 4° C. for one night for GFAP and for three nights for ChAT. The secondary antibodies (Cy3 anti-goat or Cy2/Dylight anti rabbit; both Dianova) were applied on separate sections 1:300 for 1 h at room temperature. […] In order to quantify motoneuron numbers in coronal cryosections from the lumbar spinal (L3-L6) cord first the area of the ventral horn was defined according to the criteria from Kong et al. (Kong and Xu 1998). […] At least five sections per mouse spinal cord that were 100 μm apart over a length of at least 500 μm isolated from the lumbar spinal cord were counted. In the d50 treatment group analyzed at death, a total of 20 mice was counted from the vehicle (3 male, 3 female), Fas30 (3 male, 3 female), Fas100 (3 male, 3 female) and wildtype (1 male, 1 female) group. In the […] treatment group analyzed at death, a total of 20 mice was counted from the vehicle (3 male, 3 female), Fas30 (3 male, 3 female), and Fas100 (3 male, 3 female) and wildtype (1 male, 1 female) group. In the d50 treatment group analyzed at […], a total of 20 mice was counted from the vehicle (3 male, 3 female), Fas30 (3 male, 3 female), Fas100 (3 male, 3 female) and wildtype (1 male, 1 female) group.

[5] = tested on: sciatic nerve axons of SOD1 G93A mice; assay: Sciatic nerve axon numbers (axonal degeneration); type: in vivo, mouse; settings: day 100, female, Fas30 vs transgenic vehicle
Procedure: Sciatic nerves were removed separately and postfixed for 24 h in 4% paraformaldehyde. […] After three washing steps the nerves were embedded in […] and Propylenoxide with a ratio of first 1:1 and then 2:1, each for 35 min. Before putting into a flat mould for drying and harding, Propylenoxide had to evaporate under a hood for 1 h. The sciatic nerves embedded in […] blocks were cut with a Microtom (Leica Ultracut) into semithin sections (380 nm) and were collected on gelatine coated glass slides. […] After washing in distilled water, slices were dried and mounted in […] cuts of sciatic nerve axons were evaluated from light microscopy images for axonal numbers and axoplasm size with the semi-automated counting and size measuring tool of the Image J software. In the d50 treatment group analyzed at […], a total of 17 female mice were counted from vehicle (5), Fas30 (7), and wildtype (5).

Structure (SMILES): O=S(=O)(c1cccc2cnccc12)N1CCCNCC1 [Fasudil, 1-(5-isoquinolinesulfonyl)homopiperazine]
- disease duration ([1]; presymptomatically treated female mice): prolonged time
- disease duration ([1]; symptomatically treated groups): did not show any significant alterations
- rotarod performance ([2]; male, presymptomatic Fas30): slight non-significant trend to improved performance
- time to failure to reach 180 s rotarod running time ([2]; presymptomatic female treatment group, vehicle 114.2 days): 122.5 days
- rotarod performance ([2]; symptomatic treatment): not able to improve rotarod performances
- hanging wire performance (180 s) [3]: not different
- motoneuron numbers differentiated by cell body size ([4]; day 100, female, Fas30 vs transgenic vehicle, trend not significant): more motoneurons in all size groups
- cumulative cell body size per anterior horn section ([4]; day 100, female, Fasudil vs vehicle): defined trend to be larger
- numbers of ChAT positive motoneurons ([4]; day 100, female, presymptomatic Fas30 vs transgenic vehicle): strong trend of elevated numbers of motoneurons
- ChAT cell numbers per lumbar spinal cord section ([4]; female, presymptomatic F100 (high dose)): 7.3±1.00
- ChAT cell numbers per lumbar spinal cord section ([4]; female, presymptomatic Fas30): 8.6±0.36
- motoneuron count ([4]; female, symptomatic treatment groups): did not differ
- motoneuron count ([4]; male, presymptomatic Fas30 or Fas100): did not profit
- motoneuron count ([4]; male, symptomatic Fas30 vs vehicle): higher motoneuron numbers
- axonal number by axoplasmal diameter size range [5]: no significant differences
- total number of preserved axons in the sciatic nerve [5]: comparable axon numbers
